Test results: patent US20130184302A1, “METHODS FOR TREATING IRRITABLE BOWEL SYNDROME (IBS) AND INFECTIONS” (priority 2011, published 2013)

How the values were obtained:
Format in all cases: in vivo, human
[1] = test system: C. difficile infection (CDI); test: CDI trial: continuing illnesses; conditions: Rifaximin N = 117, Vancomycin N = 115
[2] = test system: C. difficile infection (CDI); test: CDI trial: number of unformed stools during the treatment period; conditions: during the treatment period; ANOVA model with treatment and center as main effects; Rifaximin N = 117, Vancomycin N = 115
From the text: FIG. 18 sets for the average number of unformed stools per day of the study.

[3] = test system: C. difficile infection (CDI); test: CDI trial: subgroup analysis of diarrhea at TOC; conditions: at TOC
From the text: Tables 42 and 43 set forth a subgroup analysis of diarrhea at TOC.

[4] = test system: C. difficile infection (CDI); test: CDI trial: efficacy adjusting for concomitant medication usage
From the text: Table 48 sets forth the efficacy adjusting for concomitant medication usage.

[5] = test system: C. difficile infection (CDI); test: CDI trial: recurrence of CDI, recurrence rate per person-year
From the text: Recurrence was defined to be a diarrhea and a positive C. diff stool toxin assay that occurred after initial clinical success.

[6] = test system: C. difficile infection (CDI); test: CDI trial: enteric symptoms at TOC; conditions: Rifaximin N = 108, Vancomycin N = 111
From the text: Table 41 sets forth a summary of the enteric symptoms at TOC.

[7] = test system: C. difficile infection (CDI); test: CDI trial: global cure of diarrhea; conditions: Rifaximin N = 117, Vancomycin N = 115
From the text: Subjects having a global cure of diarrhea are set for the in Table 45. Global cure of diarrhea was defined as subjects who were cured of diarrhea at TOC without recurrence at follow up.

[8] = test system: C. difficile infection (CDI); test: CDI trial rifaximin 400 mg TID vs vancomycin 125 mg QID: clinical success at Test of Cure; conditions: at TOC (Day 14+/−1)
Procedure: Criteria for entry into the trial were: • Age>=18 years old; • Had acute diarrhea at screening defined as >=3 unformed stools in the last 24 hours and at least one sign of enteric infection (fever, nausea, lose of appetite, vomiting, severe abdominal pain/discomfort); and • a positive C. diff stool toxin assay
The primary efficacy endpoint of the study was defined as the proportion of subjects achieving clinical success. Specifically, clinical success was defined as the absence of severe abdominal pain at Test of Cure (TOC), absence of fever (<38° C.) at TOC, and <3 unformed stools for two consecutive days at TOC.
The non-inferiority margin for the primary endpoint was defined as lower bound of 95% CI of delta above −15%.
Clinical success was defined as the: Absence of severe abdominal pain at TOC, absence of fever (<38° C.) at TOC, and <3 unformed stools for two consecutive days at TOC. Test of cure defined as Day 14+/−1 day.

[9] = subgroup Age <65, Rifaximin N = 69, Vancomycin N = 62
[10] = subgroup Age >=65, Rifaximin N = 39, Vancomycin N = 49
[11] = subgroup Female, Rifaximin N = 68, Vancomycin N = 64
[12] = subgroup Male, Rifaximin N = 40, Vancomycin N = 47
[13] = Rifaximin N = 109, Vancomycin N = 112
[14] = Rifaximin N = 117, Vancomycin N = 115
[15] = after initial clinical success, Rifaximin N = 67, Vancomycin N = 73
[16] = all subjects, Rifaximin N = 117, Vancomycin N = 115
[17] = cured of diarrhea at TOC without recurrence at follow up

## CN[C@H](CC(C)C)C(=O)N[C@H]1C(=O)N[C@@H](CC(N)=O)C(=O)N[C@H]2C(=O)N[C@H]3C(=O)N[C@H](C(=O)N[C@H](C(=O)O)c4cc(O)cc(O)c4-c4cc3ccc4O)[C@H](O)c3ccc(c(Cl)c3)Oc3cc2cc(c3O[C@@H]2O[C@H](CO)[C@@H](O)[C@H](O)[C@H]2O[C@H]2C[C@](C)(N)[C@H](O)[C@H](C)O2)Oc2ccc(cc2Cl)[C@H]1O [Vancomycin, vancomycin]
[1]
  Continuing Illness: No, number of subjects: 99
  Continuing Illness: No, percent of subjects: (86%)
  Continuing Illness: Yes, number of subjects: 16
  Continuing Illness: Yes, percent of subjects: (14%)
[2]
  Adjusted mean number of unformed stools-ANOVA: 1.90
[3]; [9]
  Diarrhea, number of subjects: 12
  Diarrhea, percent of subjects: (19%)
  No Diarrhea, number of subjects: 50
  No Diarrhea, percent of subjects: (81%)
[3]; [10]
  Diarrhea, number of subjects: 9
  Diarrhea, percent of subjects: (18%)
  No Diarrhea, number of subjects: 40
  No Diarrhea, percent of subjects: (82%)
[3]; [11]
  Diarrhea, number of subjects: 11
  Diarrhea, percent of subjects: (17%)
  No Diarrhea, number of subjects: 53
  No Diarrhea, percent of subjects: (83%)
[3]; [12]
  Diarrhea, number of subjects: 10
  Diarrhea, percent of subjects: (21%)
  No Diarrhea, number of subjects: 37
  No Diarrhea, percent of subjects: (79%)
[4]; [13]
  Diarrhea: No, number of subjects: 82
  Diarrhea: No, percent of subjects: (73%)
  Diarrhea: Yes, number of subjects: 30
  Diarrhea: Yes, percent of subjects: (27%)
[4]; [14]
  Clinical Success: No, number of subjects: 46
  Clinical Success: No, percent of subjects: (40%)
  Clinical Success: Yes, number of subjects: 69
  Clinical Success: Yes, percent of subjects: (60%)
[5]; [15]
  No Recurrence of CDI, number of subjects: 63
  No Recurrence of CDI, percent of subjects: (86%)
  Recurrence of CDI, number of subjects: 10
  Recurrence of CDI, percent of subjects: (14%)
[5]; [16]
  Recurrence: No, number of subjects: 105
  Recurrence: No, percent of subjects: (93%)
  Recurrence: Yes, number of subjects: 10
  Recurrence: Yes, percent of subjects: (7%)
[6]
  Diarrhea: No, number of subjects: 90
  Diarrhea: No, percent of subjects: (81%)
  Diarrhea: Yes, number of subjects: 21
  Diarrhea: Yes, percent of subjects: (19%)
  Fever: No, number of subjects: 109
  Fever: No, percent of subjects: (98%)
  Fever: Yes, number of subjects: 2
  Fever: Yes, percent of subjects: (2%)
  Severe Abdominal Pain/Discomfort: No, number of subjects: 95
  Severe Abdominal Pain/Discomfort: No, percent of subjects: (86%)
  Severe Abdominal Pain/Discomfort: Yes, number of subjects: 16
  Severe Abdominal Pain/Discomfort: Yes, percent of subjects: (14%)
[7]
  Global Cure of Diarrhea: No, number of subjects: 30
  Global Cure of Diarrhea: No, percent of subjects: (26%)
[7]; [17]
  Global Cure of Diarrhea: Yes, number of subjects: 85
  Global Cure of Diarrhea: Yes, percent of subjects: (74%)
[8]; Rifaximin 400 mg TID N = 117, Vancomycin 125 mg QID N = 115
  Clinical Success: Yes, number of subjects: 73
[8]; [14]
  Clinical Success: No, number of subjects: 42
  Clinical Success: No, percent of subjects: (37%)
  Clinical Success: Yes, percent of subjects: (64%)
